ChEMBL document CHEMBL1909046, “DrugMatrix in vitro pharmacology data”

Columns and labels:
[1] = molecular target: Beta-3 adrenergic receptor (Homo sapiens, UniProt P13945); assay: DRUGMATRIX: Adrenergic beta3 radioligand binding (ligand: [125I] Cyanopindolol); assay type: cell membranes, HEK293, Membrane; settings: Not Active = under 50% inhibition at 10 µM
[2] = DRUGMATRIX: GABAA, Chloride Channel, TBOB radioligand binding (ligand: [3H] TBOB); assay type: cell membranes, Rattus norvegicus, Wistar, Cerebral cortex, Membrane; settings: Not Active = under 50% inhibition at 10 µM
[3] = molecular target: T1, 3-hydroxy-3-methylglutaryl-coenzyme A reductase (Homo sapiens, UniProt P04035); parameters: species or system Escherichia coli;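 also: enzyme inhibition assay of HMG-CoA reductase using radiolabeled [14C]HMG-CoA as substrate; in other assays of this panel Not Active means under 50% inhibition at 10 µM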
T1 sequence (P04035 whole entry): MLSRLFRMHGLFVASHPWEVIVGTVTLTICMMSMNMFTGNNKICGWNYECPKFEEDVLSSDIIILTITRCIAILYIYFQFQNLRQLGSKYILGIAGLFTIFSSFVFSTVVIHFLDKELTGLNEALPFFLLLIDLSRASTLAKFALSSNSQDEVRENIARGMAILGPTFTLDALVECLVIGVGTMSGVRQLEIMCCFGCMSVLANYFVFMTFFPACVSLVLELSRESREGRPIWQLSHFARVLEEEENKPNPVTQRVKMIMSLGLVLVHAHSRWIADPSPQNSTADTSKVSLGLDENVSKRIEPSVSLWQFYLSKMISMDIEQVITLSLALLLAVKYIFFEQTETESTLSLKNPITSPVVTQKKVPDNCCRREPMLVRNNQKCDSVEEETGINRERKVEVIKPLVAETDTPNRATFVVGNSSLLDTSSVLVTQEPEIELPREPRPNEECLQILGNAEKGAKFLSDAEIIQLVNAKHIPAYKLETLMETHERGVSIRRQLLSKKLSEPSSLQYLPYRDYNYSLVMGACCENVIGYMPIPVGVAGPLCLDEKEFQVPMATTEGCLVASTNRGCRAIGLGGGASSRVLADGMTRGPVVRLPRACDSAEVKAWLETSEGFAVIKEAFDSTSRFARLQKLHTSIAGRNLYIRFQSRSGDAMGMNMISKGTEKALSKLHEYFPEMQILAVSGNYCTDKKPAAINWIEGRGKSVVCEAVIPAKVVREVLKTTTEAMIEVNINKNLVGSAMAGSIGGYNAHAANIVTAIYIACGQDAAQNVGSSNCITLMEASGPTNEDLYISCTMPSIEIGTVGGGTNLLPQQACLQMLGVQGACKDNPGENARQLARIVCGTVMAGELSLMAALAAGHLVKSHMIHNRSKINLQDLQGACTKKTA

[4] = molecular target: T2, Angiotensin-converting enzyme (Oryctolagus cuniculus, UniProt P12822); assay type: tissue-based, Lung;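 also: enzymatic inhibition of angiotensin-converting enzyme measured with FAPGG as the substrate; in other assays of this panel Not Active means under 50% inhibition at 10 µM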
T2 sequence (P12822 whole entry): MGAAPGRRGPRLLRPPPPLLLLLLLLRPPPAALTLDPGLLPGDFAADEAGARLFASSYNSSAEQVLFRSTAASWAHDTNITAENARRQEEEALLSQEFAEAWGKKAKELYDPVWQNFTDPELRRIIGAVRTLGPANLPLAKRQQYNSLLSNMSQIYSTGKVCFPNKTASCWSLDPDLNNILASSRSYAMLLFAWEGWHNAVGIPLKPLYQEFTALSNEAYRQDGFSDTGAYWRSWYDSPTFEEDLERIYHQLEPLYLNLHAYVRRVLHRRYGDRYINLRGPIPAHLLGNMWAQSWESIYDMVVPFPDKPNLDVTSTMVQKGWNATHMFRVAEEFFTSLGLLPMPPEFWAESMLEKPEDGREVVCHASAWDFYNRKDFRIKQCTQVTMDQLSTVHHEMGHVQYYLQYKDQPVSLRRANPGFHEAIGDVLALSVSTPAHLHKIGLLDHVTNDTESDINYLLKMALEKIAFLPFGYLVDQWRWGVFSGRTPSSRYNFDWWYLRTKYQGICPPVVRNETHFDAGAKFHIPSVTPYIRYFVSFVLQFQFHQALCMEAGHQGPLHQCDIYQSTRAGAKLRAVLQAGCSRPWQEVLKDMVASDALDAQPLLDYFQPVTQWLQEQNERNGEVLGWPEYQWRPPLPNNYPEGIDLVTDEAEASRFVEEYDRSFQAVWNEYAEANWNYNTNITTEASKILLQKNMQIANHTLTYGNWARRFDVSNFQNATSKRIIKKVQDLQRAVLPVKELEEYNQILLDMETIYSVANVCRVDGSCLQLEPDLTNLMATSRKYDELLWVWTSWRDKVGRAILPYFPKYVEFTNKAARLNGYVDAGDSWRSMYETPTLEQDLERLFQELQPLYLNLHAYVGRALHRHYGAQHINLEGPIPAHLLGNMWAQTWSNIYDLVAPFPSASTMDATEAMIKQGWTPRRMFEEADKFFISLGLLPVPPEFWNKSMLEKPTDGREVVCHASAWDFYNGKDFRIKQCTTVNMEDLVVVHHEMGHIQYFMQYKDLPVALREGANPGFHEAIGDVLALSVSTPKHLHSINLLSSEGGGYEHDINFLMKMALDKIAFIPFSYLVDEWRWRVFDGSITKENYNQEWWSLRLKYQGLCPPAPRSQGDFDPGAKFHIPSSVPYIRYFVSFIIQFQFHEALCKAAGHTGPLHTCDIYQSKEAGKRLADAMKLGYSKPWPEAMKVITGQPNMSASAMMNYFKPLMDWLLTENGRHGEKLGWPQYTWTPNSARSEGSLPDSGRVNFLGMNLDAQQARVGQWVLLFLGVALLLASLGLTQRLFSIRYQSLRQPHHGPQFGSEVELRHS

[5] = molecular target: Tyrosine-protein kinase Fyn (Homo sapiens, UniProt P06241); assay: biochemical; assay type: cell-based, Insect cells; settings: insect cells;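 also: enzymatic inhibition of Fyn kinase activity measured with Poly(Glu:Tyr) as the phosphorylation substrate; in other assays of this panel Not Active means under 50% inhibition at 10 µM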
[6] = DRUGMATRIX: Purinergic P2X radioligand binding (ligand: [3H] alpha, beta-Methylene-ATP); assay type: cell membranes, Oryctolagus cuniculus, New Zealand albino, Urinary bladder, Membrane; settings: Not Active = under 50% inhibition at 10 µM
Estrogen receptor beta = Estrogen receptor beta (Homo sapiens, UniProt Q92731); settings: sf9; also: in other assays of this panel Not Active means under 50% inhibition at 10 µM
Sequence of Estrogen receptor beta (Q92731 whole entry): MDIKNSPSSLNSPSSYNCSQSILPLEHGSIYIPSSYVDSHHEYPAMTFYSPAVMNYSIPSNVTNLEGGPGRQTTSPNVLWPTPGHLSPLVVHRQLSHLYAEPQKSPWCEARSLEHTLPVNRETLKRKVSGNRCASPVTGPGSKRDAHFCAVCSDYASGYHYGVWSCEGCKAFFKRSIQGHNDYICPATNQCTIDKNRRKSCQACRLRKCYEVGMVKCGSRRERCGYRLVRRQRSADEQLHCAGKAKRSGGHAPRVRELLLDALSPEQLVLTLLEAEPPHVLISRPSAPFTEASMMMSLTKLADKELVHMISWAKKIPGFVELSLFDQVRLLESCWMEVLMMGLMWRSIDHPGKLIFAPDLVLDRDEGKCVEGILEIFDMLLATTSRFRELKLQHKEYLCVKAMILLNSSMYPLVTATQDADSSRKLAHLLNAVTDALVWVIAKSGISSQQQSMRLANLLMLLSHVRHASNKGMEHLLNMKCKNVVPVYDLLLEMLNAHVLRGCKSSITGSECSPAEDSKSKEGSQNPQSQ

Sequence of Beta-3 adrenergic receptor (P13945 whole entry): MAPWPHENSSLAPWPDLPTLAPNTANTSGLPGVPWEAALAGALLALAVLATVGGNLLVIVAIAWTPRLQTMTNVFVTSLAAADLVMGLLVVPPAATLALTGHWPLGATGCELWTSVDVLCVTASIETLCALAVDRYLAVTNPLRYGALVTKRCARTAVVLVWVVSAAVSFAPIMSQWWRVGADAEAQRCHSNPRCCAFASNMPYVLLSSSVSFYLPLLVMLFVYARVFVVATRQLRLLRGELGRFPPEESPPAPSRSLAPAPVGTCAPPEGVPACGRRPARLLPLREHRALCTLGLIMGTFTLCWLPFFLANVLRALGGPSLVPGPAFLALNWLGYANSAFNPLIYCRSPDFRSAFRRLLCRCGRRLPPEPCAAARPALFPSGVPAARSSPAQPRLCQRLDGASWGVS
Sequence of Tyrosine-protein kinase Fyn (P06241 whole entry): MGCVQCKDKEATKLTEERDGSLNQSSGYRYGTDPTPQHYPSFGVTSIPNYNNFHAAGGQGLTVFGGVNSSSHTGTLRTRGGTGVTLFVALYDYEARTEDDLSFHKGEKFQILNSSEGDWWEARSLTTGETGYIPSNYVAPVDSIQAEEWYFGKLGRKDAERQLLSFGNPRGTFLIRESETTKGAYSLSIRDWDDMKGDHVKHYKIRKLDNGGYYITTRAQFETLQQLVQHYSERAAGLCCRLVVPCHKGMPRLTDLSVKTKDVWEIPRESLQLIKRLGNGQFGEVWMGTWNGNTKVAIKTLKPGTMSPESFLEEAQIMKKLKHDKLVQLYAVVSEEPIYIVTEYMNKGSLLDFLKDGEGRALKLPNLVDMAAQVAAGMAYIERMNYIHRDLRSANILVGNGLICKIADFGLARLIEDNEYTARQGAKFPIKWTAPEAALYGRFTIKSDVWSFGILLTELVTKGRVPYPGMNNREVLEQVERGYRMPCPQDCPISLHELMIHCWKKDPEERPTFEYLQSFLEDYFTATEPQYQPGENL

| Compound | IC50 ([1]; hek293) | IC50 [2] | Ki [2] | IC50 [3] | IC50 [4] | IC50 [5] | IC50 [6] | Ki [6] | IC50 (Estrogen receptor beta) | IC50 ([1]; read-out: IC50) [nM] | Ki ([1]; read-out: Ki) [nM] |
| --- | --- | --- | --- | --- | --- | --- | --- | --- | --- | --- | --- |
| CC(=O)Oc1ccc(C(c2ccc(OC(C)=O)cc2)c2ccccn2)cc1 [BISACODYL] | Not Active | Not Active | Not Active | Not Active | Not Active | Not Active | Not Active | Not Active | Not Active | – | – |
| Cc1cc2c(OCC(CNC(C)(C)C)OC(=O)c3ccccc3)cccc2[nH]1 (stereo not drawn) [BOPINDOLOL] | – | Not Active | Not Active | Not Active | Not Active | Not Active | Not Active | Not Active | Not Active | 458 | 344 |
| Brc1c(NC2=NCCN2)ccc2nccnc12 [BRIMONIDINE] | Not Active | Not Active | Not Active | Not Active | Not Active | Not Active | Not Active | Not Active | Not Active | – | – |
| CN(C)[C@@H]1C(O)=C(C(N)=O)C(=O)[C@@]2(O)C(O)=C3C(=O)c4c(O)ccc(Cl)c4[C@@](C)(O)[C@H]3C[C@@H]12 [CHLORTETRACYCLINE] | Not Active | Not Active | Not Active | Not Active | Not Active | Not Active | Not Active | Not Active | Not Active | – | – |
| CN/C(=N\CCSCc1nc[nH]c1C)NC#N [CIMETIDINE] | Not Active | Not Active | Not Active | Not Active | Not Active | Not Active | Not Active | Not Active | Not Active | – | – |
| CCC(=O)O[C@]1(C(=O)CCl)[C@@H](C)C[C@H]2[C@@H]3CCC4=CC(=O)C=C[C@]4(C)[C@@]3(F)[C@@H](O)C[C@@]21C [CLOBETASOL PROPIONATE] | Not Active | Not Active | Not Active | Not Active | Not Active | Not Active | Not Active | Not Active | Not Active | – | – |
| O=C1CN=C(c2ccccc2Cl)c2cc([N+](=O)[O-])ccc2N1 [CLONAZEPAM] | Not Active | Not Active | Not Active | Not Active | Not Active | Not Active | Not Active | Not Active | Not Active | – | – |
| COC(=O)Nc1nc2ccc([S+]([O-])c3ccccc3)cc2[nH]1 (stereo not drawn) [OXFENDAZOLE] | Not Active | Not Active | Not Active | Not Active | Not Active | Not Active | Not Active | Not Active | – | – | – |
| CC(C)NCC(O)COc1cccc2[nH]ccc12 (stereo not drawn) [PINDOLOL] | – | Not Active | Not Active | Not Active | Not Active | Not Active | Not Active | Not Active | Not Active | – | – |
| CCCNCC(O)COc1ccccc1C(=O)CCc1ccccc1 (stereo not drawn) [PROPAFENONE] | – | Not Active | Not Active | Not Active | Not Active | Not Active | Not Active | Not Active | Not Active | – | – |
